Experiments:
Human CD4 cells = test: Cytokine profile in human CD4+ cells activated with anti CD3 and anti CD28 antibodies (Multiplex); assay type: cell-based; settings: UBE 100 ng/ml, 72 hours
Method: Human CD4 cells were MACS separated from blood of healthy donors using the immunomagnetic separation system of Miltenyi, in accordance with manufacturer instructions. Cells were incubated (each well contained 0.5×106/0.5 ml) with human IL2 (100 U/ml) and human anti CD3 antibodies (1 ug/ml) and human anti CD28 antibodies (1 ug/ml) with or without UBE (100 ng/ml) for 72 hours in a CO2 (6%) incubator at 37° C. in multiwall plates. Thereafter plates were centrifuged and supernatants were collected and stored at −20° C. until cytokine analysis was conducted. Cytokines were determined by Multiplex system (BioRad). *p<0.02, **p<0.006 using students t-test for comparison between UBE-treated and control cells.

male MRL/lpr mice = test: Advanced stage of Systemic Lupus Erythematosus in MRL/lpr mice; assay type: in vivo; settings: 1 μg/kg thrice a week from age of 22 weeks, 22 days; FIG. 10
Method: UBE (SEQ ID NO: 2; 1 μg/kg) was administered to male MRL/lpr mice thrice a week, starting at age of 22 weeks. At this age the mice are acutely affected and show a high level of proteinuria. Urine was obtained by spontaneous urination and the animals' urinary protein levels (mg/dl) were evaluated throughout the treatment period (22 days) using a commercial stick.

mice = test: LPS induced sepsis in mice, second protocol, UBE i.p.; assay type: in vivo; settings: for survival of the mice treated: repeated after 24 hours, 50 hours post LPS injection, FIG. 20A
Method: In a second protocol, mice were injected i.p. with LPS (dissolved in saline solution) at a dose of 1.2 mg/mouse, followed by i.p. injection of UBE at a dose of 1.0 or 10.0 μg/kg after 30 minutes. UBE treatment was repeated after 24 hours (n=4 for UBE-treated groups and n=5 for controls).

Female NZBW/F1 mice [1] = test: Spontaneous lupus-like syndrome in NZBW/F1 mice (second SLE model); assay type: in vivo
Method: Female NZBW/F1 mice develop a lupus-like syndrome spontaneously. UBE (SEQ ID NO:2) (0.3 μg/kg) was administered to female NZBW/F1 mice daily (except for Saturday and Holidays), starting at the indicated time point (170 days) (n=10). Urine was obtained by spontaneous urination and the levels of protein (mg/dl) in the urine were evaluated throughout the treatment period using commercial sticks.
Quantitative histopathology analysis of the kidneys and lungs were also performed for this model (FIG. 12A-D). Kidneys were removed from control and UBE treated mice (0.3 lug/kg) then fixed in formalin, sliced, and stained by H&E. Representative histophathologies of the control versus UBE treated mice is shown FIGS. 12A versus 12B at 10× magnification, respectively. Note glomerular sclerosis (GS), thickening glomerular mesangium (G), protein accumulation in tubular lumen (PC), interstitial fibrosis (I) and perivascular lymphoid infiltration (lymphoid) in the control (12A) while normal appearance of kidney in the UBE-treated group (12B). The quantitative histopathology analysis with regard to tubular and interstitial damage is presented in FIG. 12C and FIG. 12D, respectively.
Quantitative histopathology analysis of the lungs was also performed for this model (FIG. 12E-G). Representative histophathologies of control versus UBE treated mice (0.3 μg/kg) is shown FIGS. 12E versus 12F at 10× magnification, respectively. Note heavy perivascular lymphoid infiltration (lymphoid) in the control samples (FIG. 12E) while normal appearance in the UBE-treated group (FIG. 12F).
In order to determine the levels of anti-dsDNA antibodies, blood was obtained by cardiac puncture of the NZBW/F1 mice at the indicated endpoint in UBE treatment, and the serum levels of anti-dsDNA antibodies and BLys (B lymphocyte stimulator) levels were determined by ELISA using a commercial kit (R&D Systems, Minneapolis, Minn., USA).
To evaluate the effect of UBE on lymphocyte function in NZBW/F1 mice, spleen cells and blood samples were isolated from control and UBE-treated (0.3 microgram per kilogram) mice and subjected to FACS analysis of double negative CD4−CD8− (expressed as percent CD3+) (FIG. 14).
Blood cells were similarly evaluated and representative results from control and UBE treated animals (0.3 μg/kg) are shown in FIGS. 14D and 14E, respectively.

Female Balb/C mice = test: Ovalbumin-induced asthma in mice, eosinophils in bronchoalveolar lavage; assay type: in vivo; settings: UBE i.n. 50 ng/mouse on days 24 and 27, one hour before OVA; day 29; FIG. 21
Method: 20 ul of 5% Ovalbumin (OVA) was added to 8.75 ml of sterile saline, which was then added stepwise to a solution of 1.25 ml of 40 mg/ml ImjectAlum (Pierce), and subjected to rocking at room temperature for 30-60 minutes, to facilitate optimal alum absorption to the Ovalbumin (Alum/Ova). Female Balb/C mice were then injected with 200 ul of Alum/Ova i.p, according to the following protocol:
On Days 0 and 14, mice were injected i.p with OVA/Alum.
On day 24 mice were injected intranasally (i.n.) with. UBE/saline (50 ng/50 μl/mouse, 25 μl to each nostril) and then after one hour, mice were injected i.n with OVA (50 μg/50 μl/mouse, 25 μl to each nostril).
On Day 27, mice were injected i.n. UBE/saline (50 ng/50 μl/mouse, 25 μl to each nostril) and then 1 hour subsequently were again injected i.n. with OVA (50 μg/50 μl/mouse). Mice were then sacrificed on day 29, and bronchoalveolar fluid was obtained by lung lavage (1 ml of 10% FCS-heat inactivated in PBS), and the percent of eosinophils seen in lavage fluid versus white cell count was ascertained by microscopic evaluation of smears.

Female NZBW/F1 mice [2] = test: Spontaneous lupus-like syndrome in NZBW/F1 mice (second SLE model); assay type: in vivo; settings: FIG. 11B
Male CD1 mice = test: Carrageenan-induced hind paw swelling; assay type: in vivo; settings: UBE injected thirty minutes before carrageenan; swelling after 3 hours versus prior to carrageenan; FIG. 1
Method: Male CD1 mice were intravenously (i.v.) injected with the indicated doses of the UBE polypeptide having the sequence […] (SEQ ID NO:2). Thirty minutes thereafter, each animal was injected with carrageenan (50 μl of 3 mg/ml into each hindpaw). The animals were evaluated for the difference between the degree of swelling (mm) after 3 hours and prior to carrageenan injection.

“SMPPIVRFDHPFLFIIFEEHTQSPLFVGKVVDPTHK (listed as Mus musculus) [UBE, 36-mer peptide corresponding to residues 378-413 of Mus musculus alpha-1-antitrypsin (serpin a1c)]” was tested, and the “inflammatory mediators overall (IL6, IL17A, IL21, IL22, IL23, IL31, IFNγ)” value (Human CD4 cells; FIG. 22A-G) was “overall trend in reduced inflammatory mediators”, the IL22 production (Human CD4 cells; FIG. 22D) was “significantly reduced” and the IL23 production (Human CD4 cells; FIG. 22E) was “significantly reduced”. For the same sequence, the IL31 production (Human CD4 cells; FIG. 22F) was “significantly reduced”, the “proteinuria (urinary protein)” value (male MRL/lpr mice) was “significant reduction” and the “survival of the mice treated” value (mice; UBE 1.0 μg/kg i.p. 30 minutes after LPS) was “approximately 50%”. The “survival of the mice treated” value (mice; UBE 10 μg/kg i.p. 30 minutes after LPS) was “approximately 50%”, the “survival time as compared to controls” value (mice; both UBE dosages (1.0 and 10 μg/kg i.p.)) was “significantly prolonged survival” and the “rise in urinary protein levels (proteinuria)” value (Female NZBW/F1 mice [1]; UBE 0.3 μg/kg daily from 170 days, FIG. 11A) was “abrogated”. For the same sequence, the “pathological score of the tubular areas (kidney histopathology)” value (Female NZBW/F1 mice [1]; UBE 0.3 μg/kg, FIG. 12C) was “significant reduction”, the “pathological score of the interstitial areas (kidney histopathology)” value (Female NZBW/F1 mice [1]; UBE 0.3 μg/kg, FIG. 12D) was “significant reduction” and the “pathological score, lung parenchymal damage” value (Female NZBW/F1 mice [1]; UBE 0.3 μg/kg, FIG. 12G) was “significant reduction”. The “serum BLys (B lymphocyte stimulator) level, ELISA” value (Female NZBW/F1 mice [1]; UBE 0.3 μg/kg, FIG. 13A) was “significant reduction”, the “serum anti-dsDNA antibody level, ELISA” value (Female NZBW/F1 mice [1]; UBE 0.3 μg/kg, FIG. 13B) was “significant reduction” and the “double negative CD4−CD8− cells, FACS” value (Female NZBW/F1 mice [1]; blood, UBE 0.3 μg/kg, FIG. 14F) was “dramatically reduced”. The “double negative CD4−CD8− cells (percent CD3+), FACS” value (Female NZBW/F1 mice [1]; spleen, UBE 0.3 μg/kg, FIG. 14C) was “dramatically reduced”, the “eosinophil concentration in lavage fluid (percent of eosinophils versus white cell count)” value (Female Balb/C mice) was “dramatic reduction” and the proteinuria (Female NZBW/F1 mice [2]; UBE 1 μg/kg) was “reduced proteinuria in a significant manner”. For the same sequence, the proteinuria (Female NZBW/F1 mice [2]; UBE 3 μg/kg) was “reduced proteinuria in a significant manner” and the “carrageenan-induced inflammation (hind paw swelling)” value (Male CD1 mice) was “significant reduction”.
